Data as given in patent US20030229063A1, “Use of 4-hydroxytestosterone to lower estrogen levels in humans” (priority 2002, published 2003).

Legend:
aromatase enzyme complex = biological target: T1, aromatase enzyme complex (Homo sapiens, UniProt P11511); conditions: irrevocably attaches the enzyme; cited from earlier work
T1 sequence (P11511 1-503): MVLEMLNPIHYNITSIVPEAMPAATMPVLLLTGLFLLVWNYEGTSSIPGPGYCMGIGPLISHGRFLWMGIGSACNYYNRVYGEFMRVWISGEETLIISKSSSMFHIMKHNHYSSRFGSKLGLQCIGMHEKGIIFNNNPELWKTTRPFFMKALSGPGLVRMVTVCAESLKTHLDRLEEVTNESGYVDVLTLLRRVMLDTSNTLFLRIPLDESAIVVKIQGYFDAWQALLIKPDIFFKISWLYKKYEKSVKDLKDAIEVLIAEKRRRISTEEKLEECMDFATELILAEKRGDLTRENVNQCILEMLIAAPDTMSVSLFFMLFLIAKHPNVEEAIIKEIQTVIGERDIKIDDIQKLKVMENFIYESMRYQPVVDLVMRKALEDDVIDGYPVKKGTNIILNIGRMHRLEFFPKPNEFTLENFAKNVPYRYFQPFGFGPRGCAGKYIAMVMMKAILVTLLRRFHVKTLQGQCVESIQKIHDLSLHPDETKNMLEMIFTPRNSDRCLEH

aromatase [1] = biological target: T2, aromatase (Homo sapiens, UniProt P11511); assay: clinical study of peroral aromatase inhibition in man; type: in vivo; set-up: from tissue; host or cells: in vivo, human subjects (whole body); conditions: in humans
T2 sequence (P11511 1-503): T1 sequence (P11511 1-503)

aromatase [2] = biological target: T2, aromatase; conditions: androstenedione vs testosterone as aromatase substrates; cited from earlier work

| Compound | ability to aromatize to the corresponding estrogen (aromatase [2]) | other results |
| --- | --- | --- |
| C[C@]12CCC(=O)C(O)=C1CC[C@@H]1[C@@H]2CC[C@]2(C)C(=O)CC[C@@H]12 [4-hydroxyandrostenedione] |  | mode of aromatase inhibition (aromatase enzyme complex): suicide substrate for the aromatase enzyme complex |
| C[C@]12CC[C@H]3[C@@H](CCC4=C(O)C(=O)CC[C@@]43C)[C@@H]1CC[C@@H]2O [4-hydroxytestosterone, 4,17b-dihydroxy-4-androstene-3-one] |  | efficacy as an inhibitor of aromatase compared with 4-hydroxyandrostenedione (aromatase [1]): equally high level of efficacy in humans as an inhibitor of aromatase |
| C[C@]12CCC(=O)C=C1CC[C@@H]1[C@@H]2CC[C@]2(C)C(=O)CC[C@@H]12 [androstenedione] | both hormones aromatized with equal efficacy |  |
| C[C@]12CC[C@H]3[C@@H](CCC4=CC(=O)CC[C@@]43C)[C@@H]1CC[C@@H]2O [testosterone] | both hormones aromatized with equal efficacy |  |
